From US9668967B2, “Lipid formulations comprising a thiolated antioxidant” (CAMURUS AB, priority 2008, dated 2017)

Key:
[1] = Exploratory stability study of glucagon lipid formulations, 25° C./60% RH for 7 days (NP HPLC); type: physicochemical; conditions: for assayed GLU content as % of initial (time zero) GLU content (FIG. 3): antioxidant 0.3 wt % (BHT 0.1 wt %), compared with antioxidant-free control
Procedure: To prevent breakdown of glucagon resulting from oxidation of the methionine residue (giving Met(O)27glucagon), an antioxidant may be included in the compositions of the present invention. To establish the most suitable antioxidant, various common and less common antioxidants were tested in the peptide/lipid system of the present invention.
Note that the antioxidant content in the respective formulations, except for the reference formulations (#229 and #234), was 0.3 wt % for tocopherol (α-TOC), acsorbyl palmitate (AscPalm) and mono-thioglycerol (MTG) and 0.1 wt % for butyl hydroxytoluene (BHT). Samples containing MTG were #233 and 235.
In FIG. 3, the assayed GLU content after storage at 25° C./60% RH for 7 days is plotted as the % of initial (time zero) GLU content.
Because the assay is based on a normal phase (NP) HPLC column, degradation products with RR<1 are more hydrophobic compared with GLU whereas more hydrophilic degradation products give RR>1.

[2] = Hydrogen peroxide stress test of buprenorphine lipid formulations (HPLC); type: physicochemical
Procedure: Lipid formulations of BUP also containing antioxidant were prepared in the following way: First, a liquid lipid stock solution of SPC/GDO/EtOH/antioxidant (or a reference stock solution without antioxidant) in the required proportions were prepared by weighing of all components into glass vials followed by mixing by end-over-end rotation for about 8 h or until completely homogenous liquids were obtained. Thereafter, BUP (powder) was added to achieve a nominal concentration of 7.9 wt % in all cases. The antioxidants were added in an amount corresponding to common previous use in pharmaceutical products.
The following stress test was performed to evaluate the effect of the four different antioxidants (Table 1): Oxidative degradation was induced by adding 20 μL, H2O2 (30%)/mL formulation followed by equilibration of the formulations for 48 hours at RT (dark). Analysis of BUP and any oxidation degradation product (DP) in the formulations was performed by HPLC (reversed phase column) with UV detection at 288 nm.
The protective effect of different MTG concentrations was assessed by performing a stress test according to Example 1. […] The formulations were thereafter analysed by HPLC as described in Example 1 and the relative area % of the main oxidation degradation product (DP) peak (relative retention RR=1.053) was determined.

[3] = storage at 25° C./60% RH for 7 days

## CCCCCCCCCCCCCCCC(=O)OC[C@H](O)[C@H]1OC(=O)C(O)=C1O [AscPalm, acsorbyl palmitate, reference compound]
[1]; [3]
  assayed GLU content as % of initial (time zero) GLU content (FIG. 3): degrading of glucagon

## OCC(O)CS (stereo not drawn) [MTG, Mono-thioglycerol]
[1]; compared with other lipid soluble antioxidants
  suppressing the oxidative degradation of glucagon: more efficient than other lipid soluble antioxidants
[1]; [3]
  formation of Met(O)27glucagon (degradation products with RR>1, % Total Area, FIG. 4): most efficient
  assayed GLU content as % of initial (time zero) GLU content (FIG. 3): best oxidation protection
[2]; H2O2 treated formulations, Table 2
  protecting BUP from oxidation degradation in the lipid formulation, compared with reference formulation: clearly superior
[2]; MTG 0-1.0 wt % in BUP/SPC/GDO/EtOH=7.9/41.1/41.1/10.0 wt %, H2O2, 48 hours at RT (dark)
  protective effect of different MTG concentrations on main oxidation DP (FIG. 1): significant protective effect
